Measurements: patent US12668600B2 (Kumquat Biosciences Inc., priority 2023, dated 2026)

Columns and labels:
Format in all cases: biochemical
KRAS G12D = biological target: T1, KRAS G12D (Homo sapiens, UniProt P01116, G12D); assay: HTRF KRAS-SOS1 interaction assay, KRAS G12D; settings: binned ≤2 μM / >2 μM, read-out: Inhibition of KRAS G12D (IC50)
T1 construct: made in house; host or cells: E. coli, e.g. BL21 (DE3)
Excerpt: (§1) This assay can be also used to assess a selective inhibition or reduction of signaling output of a mutant Ras protein relative to a wildtype, or relative to a different mutant Ras protein. For example, the equilibrium interaction of wildtype KRAS or K-Ras mutant (e.g., wildtype or a mutant thereof) with SOS1 (e.g., hSOS1) can be assessed as a proxy or an indication for the ability of a subject compound to bind and inhibit Ras protein. The HTRF assay detects from (i) a fluorescence resonance energy transfer (FRET) donor (e.g., antiGST-Europium) that is bound to GST-tagged K-Ras mutant to (ii) a FRET acceptor (e.g., anti-6His-XL665) bound to a His-tagged hSOS1.
(§2) The assay buffer can contain ˜5 mM HEPES pH 7.4, ˜150 mM NaCl, ˜1 mM DTT, 0.05% BSA and 0.0025% (v/v) Igepal. A Ras working solution is prepared in an assay buffer containing typically a suitable amount of the protein construct (e.g., GST-tagged K-Ras mutant) and the FRET donor (e.g., antiGST-Eu (K) from Cisbio, France). A SOS1 working solution is prepared in an assay buffer containing suitable amount of the protein construct (e.g., His-hSOS1) and the FRET acceptor (e.g., anti-6His-XL665 from Cisbio, France). A suitable amount of the protein construct will depend on the range of activity or range of IC50 values being detected or under investigation. For detecting an IC50 within a range of 500 nM, the protein constructs of the same range of molarity can be utilized.
(§3) A fixed volume of DMSO with or without test compound is transferred into a 384-well plate. Ras working solution is added to all wells of the test plate. SOS1 working solution is added to all wells except for those that are subsequently filled with inhibitor control solution. Upon incubation for about 10 minutes or longer, the fluorescence is measured with a M1000Pro plate reader (Tecan) using HTRF detection (excitation 337 nm, emission 1:620 nm, emission 2:665 nm). Compounds are tested in duplicate at different concentrations (for example, 10 μM, 2.5 μM, 0.63 μM, 0.16 μM, 0.04 μM, 0.01 μM test compound). The ratiometric data (i.e., emission 2 divided by emission 1) is used to calculate IC50 values against Ras using GraphPad Prism (GraphPad software). Signaling output measured in terms of IC50 values can be obtained and a ratio of IC50 against one mutant relative to another mutant can be calculated.

KRAS G12S = biological target: T2, KRAS G12S (Homo sapiens, UniProt P01116, G12S); assay: HTRF KRAS-SOS1 interaction assay, KRAS G12S; settings: binned ≤2 μM / >2 μM, read-out: Inhibition of KRAS G12S (IC50)
T2 construct: made in house; host or cells: E. coli, e.g. BL21 (DE3)
T2 sequence (P01116 1-188 isoform P01116-2 G12S): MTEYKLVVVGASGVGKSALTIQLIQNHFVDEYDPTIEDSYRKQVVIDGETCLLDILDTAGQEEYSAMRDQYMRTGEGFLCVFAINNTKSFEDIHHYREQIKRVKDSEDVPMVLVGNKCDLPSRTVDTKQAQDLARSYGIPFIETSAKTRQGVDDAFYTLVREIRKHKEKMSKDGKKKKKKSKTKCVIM
Excerpt: as §1, §2, §3

KRAS G12V = biological target: T3, KRAS G12V (Homo sapiens, UniProt P01116, G12V); assay: HTRF KRAS-SOS1 interaction assay, KRAS G12V; settings: binned ≤2 μM / >2 μM, read-out: Inhibition of KRAS G12V (IC50)
T3 construct: made in house; host or cells: E. coli, e.g. BL21 (DE3)
T3 sequence (P01116 1-188 isoform P01116-2 G12V): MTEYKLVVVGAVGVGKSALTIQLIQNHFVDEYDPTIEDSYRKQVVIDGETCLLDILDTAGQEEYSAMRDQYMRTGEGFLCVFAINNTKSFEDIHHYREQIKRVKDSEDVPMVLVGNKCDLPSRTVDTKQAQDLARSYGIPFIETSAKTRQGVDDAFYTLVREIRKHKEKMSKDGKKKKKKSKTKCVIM
Excerpt: as §1, §2, §3

KRAS WT = biological target: T4, KRAS WT (Homo sapiens, UniProt P01116); assay: HTRF KRAS-SOS1 interaction assay, wildtype KRAS; settings: binned ≤2 μM / >2 μM, read-out: Inhibition of KRAS WT (IC50)
T4 construct: made in house; host or cells: E. coli, e.g. BL21 (DE3)
T4 sequence (P01116 1-188 isoform P01116-2): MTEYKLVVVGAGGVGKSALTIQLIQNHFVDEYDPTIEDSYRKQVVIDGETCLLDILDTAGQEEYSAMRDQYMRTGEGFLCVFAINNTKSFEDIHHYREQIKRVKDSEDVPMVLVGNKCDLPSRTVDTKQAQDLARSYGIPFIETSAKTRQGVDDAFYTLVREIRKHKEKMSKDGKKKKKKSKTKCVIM
Excerpt: as §1, §2, §3

Measured: IC50

T1 sequence (P01116 1-188 isoform P01116-2 G12D): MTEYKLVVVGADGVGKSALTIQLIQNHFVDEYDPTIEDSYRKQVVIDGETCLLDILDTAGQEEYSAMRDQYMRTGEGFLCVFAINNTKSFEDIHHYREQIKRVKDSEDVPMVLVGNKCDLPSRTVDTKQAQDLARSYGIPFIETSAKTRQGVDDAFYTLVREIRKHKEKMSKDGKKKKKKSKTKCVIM

C[C@H](c1cccnc1F)N1CCOc2c(C(F)(F)F)c(-c3ccc(F)c4sc(N)c(C#N)c34)c(F)c3nc(OC[C@@]45CCCN4C[C@H](F)C5)nc1c23 [Compound 817, 2-amino-7-fluoro-4-(10-fluoro-4-((R)-1-(2-fluoropyridin-3-yl)ethyl)-2-(((2R,7aS)-2-fluorotetrahydro-1H-pyrrolizin-7a(5H)-yl)methoxy)-8-(trifluoromethyl)-5,6-dihydro-4H-[1,4]oxazepino[5,6,7-de]quinazolin-9-yl)benzo[b]thiophene-3-carbonitrile]
≤ 2000 nM: all assays above

N#Cc1c(N)sc2c(F)ccc(-c3c(C(F)(F)F)c4c5c(nc(OC[C@@]67CCCN6C[C@@]6(CC6(F)F)C7)nc5c3F)N([C@@H](c3cccnc3N)C(F)F)CCO4)c12 (single isomer, unassigned) [Compound 897]
> 2000 nM: all assays above

C=CC[C@H](c1cccnc1N)N1C[C@H](C)Oc2nc(-c3cc(N)c(F)c(C)c3C(F)(F)F)c(F)c3nc(OC[C@@]45CCCN4C[C@H](F)C5)nc1c23 (single isomer, unassigned) [Compound 746]
≤ 2000 nM: all assays above

N#Cc1c(N)sc2cccc(-c3c(Cl)c4c5c(nc(OC[C@@]67CCCN6C[C@H](F)C7)nc5c3F)N([C@@H](c3cccnc3N)C(F)F)CCO4)c12 (single isomer, unassigned) [Compound 672]
≤ 2000 nM: all assays above

N#Cc1c(N)sc2c(F)ccc(-c3c(C(F)(F)F)c4c5c(nc(OC[C@@]67CCCN6C[C@H](F)C7)nc5c3F)N([C@H](CC3CC3)c3cccnc3N)CCO4)c12 (single isomer, unassigned) [Compound 753]
≤ 2000 nM: all assays above

C[C@H](c1cncnc1N)N1CCOc2c(C(F)(F)F)c(-c3ccc(F)c4sc(N)c(C#N)c34)c(F)c3nc(OC[C@@]45CCCN4C[C@H](F)C5)nc1c23 (single isomer, unassigned) [Compound 777]
≤ 2000 nM: all assays above

C[C@H](c1cccnc1N)N1CCOc2c(C3CC3)c(-c3ccc(F)c4sc(N)c(C#N)c34)c(F)c3nc(OC[C@@]45CCCN4C[C@H](F)C5)nc1c23 (single isomer, unassigned) [Compound 727]
≤ 2000 nM: all assays above

N#Cc1c(N)sc2c(F)ccc(-c3c(C(F)(F)F)c4c5c(nc(OC[C@@]67CCCN6C[C@H](F)C7)nc5c3F)N([C@H](CC3CCOCC3)c3cc(F)cnc3N)CCO4)c12 [Compound 634, 2-amino-4-(4-((R)-1-(2-amino-5-fluoropyridin-3-yl)-2-(tetrahydro-2H-pyran-4-yl)ethyl)-10-fluoro-2-(((2R,7aS)-2-fluorotetrahydro-1H-pyrrolizin-7a(5H)-yl)methoxy)-8-(trifluoromethyl)-5,6-dihydro-4H-[1,4]oxazepino[5,6,7-de]quinazolin-9-yl)-7-fluorobenzo[b]thiophene-3-carbonitrile]
≤ 2000 nM: all assays above

COc1cnc(N)c([C@@H](C)N2CCOc3c(C(F)(F)F)c(-c4ccc(F)c5sc(N)c(C#N)c45)c(F)c4nc(OC[C@@]56CCCN5C[C@H](F)C6)nc2c34)c1 [Compound 815, 2-amino-4-(4-((R)-1-(2-amino-5-methoxypyridin-3-yl)ethyl)-10-fluoro-2-(((2R,7aS)-2-fluorotetrahydro-1H-pyrrolizin-7a(5H)-yl)methoxy)-8-(trifluoromethyl)-5,6-dihydro-4H-[1,4]oxazepino[5,6,7-de]quinazolin-9-yl)-7-fluorobenzo[b]thiophene-3-carbonitrile]
≤ 2000 nM: all assays above

C[C@H](c1cccnc1N)N1CCOc2c(C(F)(F)F)c(-c3ccc(F)c4sc(N)c(C#N)c34)c(F)c3nc(OC[C@@]45CCCN4CC(CN(C)C)C5)nc1c23 (mixture of isomers) [Compound 721, 2-amino-4-(4-((R)-1-(2-aminopyridin-3-yl)ethyl)-2-(((7aS)-2-((dimethylamino)methyl)tetrahydro-1H-pyrrolizin-7a(5H)-yl)methoxy)-10-fluoro-8-(trifluoromethyl)-5,6-dihydro-4H-[1,4]oxazepino[5,6,7-de]quinazolin-9-yl)-7-fluorobenzo[b]thiophene-3-carbonitrile]
≤ 2000 nM: all assays above

N#Cc1c(N)sc2c(F)ccc(-c3c(C(F)(F)F)c4c5c(nc(OC[C@@]67CCCN6CC(=C(F)F)C7)nc5c3F)N([C@H](CCC(F)(F)F)c3cccnc3N)CCO4)c12 [Compound 666, 2-amino-4-(4-((R)-1-(2-aminopyridin-3-yl)-4,4,4-trifluorobutyl)-2-(((S)-2-(difluoromethylene)tetrahydro-1H-pyrrolizin-7a(5H)-yl)methoxy)-10-fluoro-8-(trifluoromethyl)-5,6-dihydro-4H-[1,4]oxazepino[5,6,7-de]quinazolin-9-yl)-7-fluorobenzo[b]thiophene-3-carbonitrile]
≤ 2000 nM: all assays above

N#Cc1c(N)sc2c(F)ccc(-c3c(C(F)(F)F)c4c5c(nc(OC[C@@]67CCCN6C[C@H](F)C7)nc5c3F)N([C@H](CC3CCC3)c3cccnc3N)CCO4)c12 (single isomer, unassigned) [Compound 893]
≤ 2000 nM: all assays above

C[C@@H]1COCCN1CC1(COc2nc3c4c(c(C(F)(F)F)c(-c5ccc(F)c6sc(N)c(C#N)c56)c(F)c4n2)OCCN3[C@H](C)c2cccnc2N)CC1 (single isomer, unassigned) [Compound 807]
> 2000 nM: all assays above

C[C@H](c1cccnc1N)N1C[C@H](C)Oc2c(C(F)(F)F)c(-c3ccc(F)c4sc(N)c(C#N)c34)c(F)c3nc(OC[C@@]45CCCN4C[C@H](F)C5)nc1c23 (single isomer, unassigned) [Compound 697]
≤ 2000 nM: all assays above

C[C@H](c1cccnc1N)N1CCOc2c(Cl)c(-c3ccc(F)c4sc(N)c(C#N)c34)c(F)c3nc(OC[C@]45CCCN4[C@H](CN)CC5)nc1c23 [Compound 915, 2-amino-4-(2-(((3S,7aR)-3-(aminomethyl)tetrahydro-1H-pyrrolizin-7a(5H)-yl)methoxy)-4-((R)-1-(2-aminopyridin-3-yl)ethyl)-8-chloro-10-fluoro-5,6-dihydro-4H-[1,4]oxazepino[5,6,7-de]quinazolin-9-yl)-7-fluorobenzo[b]thiophene-3-carbonitrile]
≤ 2000 nM: all assays above

N#Cc1c(N)sc2c(F)ccc(-c3c(C(F)(F)F)c4c5c(nc(OC[C@@]67CCCN6C[C@H](F)C7)nc5c3F)N([C@@H](c3cccnc3N)C(F)F)CCO4)c12 (single isomer, unassigned) [Compound 625]
≤ 2000 nM: KRAS G12S | KRAS G12V | KRAS WT
